The target of this assay is GLP-1R (Homo sapiens, UniProt P43220). As to the kind of experiment: GLP-1R Activation - cAMP Assay. The class given is cell-based. To be noted: cAMP increase in CHO cells stably expressing GLP-1R; each compound run on one of the two cAMP assays (Assay 1 or Assay 2, not specified). On the procedure: GLP-1R Activation—cAMP Assay 1
GLP-1R activation by compounds of the present disclosure were quantified by measuring cAMP increase in CHO cells stably expressing GLP-1R (MultiSpan product #C1267-1a). The cells were harvested and plated in growth medium (DMEM/F-12 (Corning product #10-090-CV) supplemented with 10% FBS (HyClone product #SH30071-03), penicillin/streptomycin (Corning product #30-002CI) and 10 μg/ml puromycin (Gibco product #A11138-03)) at 1,000 cells/well in a 384-well plate (Greiner product #781080). The cells were then incubated overnight at 37° C., 5% CO2. The next day, the medium was removed and the cells were washed with DPBS (Corning product #21-031-CM) before adding the assay medium (HBSS, Corning product #21-023-CV) with 20 mM Hepes (Gibco product #15630-080) and 0.1% BSA (Rockland Immunochemicals product #BSA-1000)). Following the medium change, the cells were incubated for 1 hour at 37° C., 5% CO2. The tested GLP-1 compound was added to the cells in a 10-point dose response followed by a 30 minutes incubation at 37° C., 5% CO2. cAMP concentration increase was then detected using Cisbio's cAMP Gs Dynamic Kit (product #62AM4PEC) according to the manufacturer's protocol. The response was plotted against the log of the agonist concentration and fitted to a sigmoidal equation to determine the EC50.
(In general: Cyclic AMP is a second messenger, typically raised through Gs and lowered through Gi signalling.)

Broadly, the EC50 is the midpoint of the concentration-response curve. Lower therefore signals an effect from little substance.

Structures are written as SMILES.

Chain of GLP-1R (P43220 24-463): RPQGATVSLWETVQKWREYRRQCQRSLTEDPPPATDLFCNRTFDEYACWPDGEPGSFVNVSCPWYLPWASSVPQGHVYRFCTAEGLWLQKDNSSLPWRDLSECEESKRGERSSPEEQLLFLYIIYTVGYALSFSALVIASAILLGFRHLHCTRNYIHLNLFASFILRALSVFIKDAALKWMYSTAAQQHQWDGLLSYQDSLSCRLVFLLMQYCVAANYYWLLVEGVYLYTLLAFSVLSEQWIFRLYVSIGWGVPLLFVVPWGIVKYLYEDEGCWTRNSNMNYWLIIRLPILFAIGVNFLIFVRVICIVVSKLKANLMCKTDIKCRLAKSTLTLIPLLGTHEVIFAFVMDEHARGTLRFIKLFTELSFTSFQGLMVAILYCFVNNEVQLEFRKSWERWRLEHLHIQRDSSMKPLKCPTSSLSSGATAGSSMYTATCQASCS

`CC1(C)COC[C@H]1n1c(Cc2cc(F)c(-c3cccc(OCc4ccc(C(F)F)cc4F)n3)cc2F)nc2ccc(C(=O)O)cc21` (single isomer, unassigned) [Example 383A] had an EC50 of 0.747 nM. That is a sub-nanomolar value. `N#Cc1ccc(COc2cccc(-c3cc(F)c(Cc4nc5ccc(C(=O)O)cc5n4[C@@H]4COCC45CC5)cc3F)n2)c(F)c1` (single isomer, unassigned) [Example 260]: the concentration giving a half-maximal response (EC50) came to 0.411 nM. For `COc1cc(Cl)ncc1COc1nc(-c2cc(F)c(Cc3nc4ccc(C(=O)O)cc4n3[C@@H]3COCC3(C)C)cc2F)ccc1F` [Example 342, (S)-2-(4-(6-((6-chloro-4-methoxypyridin-3-yl)methoxy)-5-fluoropyridin-2-yl)-2,5-difluorobenzyl)-1-(4,4-dimethyltetrahydrofuran-3-yl)-1H-benzo[d]imidazole-6-carboxylic acid], the EC50 is 0.012 nM. On to `Cc1cc(Cc2nc3c(F)cc(C(=O)O)cc3n2[C@@H]2COCC2(C)C)c(Cl)cc1-c1ccc(F)c(OCc2ccc(C#N)cc2F)n1` [Example 138, (S)-2-(2-chloro-4-(6-((4-cyano-2-fluorobenzyl)oxy)-5-fluoropyridin-2-yl)-5-methylbenzyl)-1-(4,4-dimethyltetrahydrofuran-3-yl)-4-fluoro-1H-benzo[d]imidazole-6-carboxylic Acid], for which the EC50 was 0.136 nM.

In turn, `N#Cc1ccc(COc2cccc(-c3ccc(Cc4nc5ccc(C(=O)O)cc5n4[C@H]4CCOC4)c(F)c3)n2)c(F)c1` [Example 210, (S)-2-(4-(6-((4-cyano-2-fluorobenzyl)oxy)pyridin-2-yl)-2-fluorobenzyl)-1-(tetrahydrofuran-3-yl)-1H-benzo[d]imidazole-6-carboxylic acid] gave an EC50 of 14.1 nM. `CC1(C)COC[C@H]1n1c(Cc2c(F)cc(-c3ccc(F)c(OCc4ccc(C#N)cc4F)n3)cc2F)nc2c(F)cc(C(=O)O)cc21` [Example 307, (S)-2-(4-(6-((4-cyano-2-fluorobenzyl)oxy)-5-fluoropyridin-2-yl)-2,6-difluorobenzyl)-1-(4,4-dimethyltetrahydrofuran-3-yl)-4-fluoro-1H-benzo[d]imidazole-6-carboxylic acid] registered a concentration for a half-maximal effect (EC50) of 0.508 nM.

Turning to `CC1(C)COC[C@H]1n1c(Cc2cc(F)c(-c3ccc(F)c(OCc4cnc(-n5ccnn5)cc4Cl)c3)cc2F)nc2ccc(C(=O)O)cc21` [Example 388, (S)-2-((3′-((4-chloro-6-(1H-1,2,3-triazol-1-yl)pyridin-3-yl)methoxy)-2,4′,5-trifluoro-[1,1′-biphenyl]-4-yl)methyl)-1-(4,4-dimethyltetrahydrofuran-3-yl)-1H-benzo[d]imidazole-6-carboxylic acid], a half-maximal effect (EC50) was put at 0.053 nM. Molecule `CC1(C)COC[C@H]1n1c(Cc2ccc(-c3cccc(OCc4ccc(Cl)cc4)n3)cc2F)nc2ccc(C(=O)O)cc21` [Example 371, (S)-2-(4-(6-((4-chlorobenzyl)oxy)pyridin-2-yl)-2-fluorobenzyl)-1-(4,4-dimethyltetrahydrofuran-3-yl)-1H-benzo[d]imidazole-6-carboxylic acid] returned an EC50 of 0.127 nM. Against the preceding molecule, the EC50 is about 2.4-fold higher.

`COCCn1c(Cc2cc(F)c(-c3cccc(OCc4ccc(-c5cnn(C(F)(F)F)c5)cc4F)n3)cc2F)nc2ccc(C(=O)O)cc21` [Example 7, 2-(2,5-difluoro-4-(6-((2-fluoro-4-(1-(trifluoromethyl)-1H-pyrazol-4-yl)benzyl)oxy)pyridin-2-yl)benzyl)-1-(2-methoxyethyl)-1H-benzo[d]imidazole-6-carboxylic acid] gave an EC50 of 0.6 nM. In the case of `COC[C@@H]1COC[C@@H]1n1c(Cc2cc(F)c(-c3cccc(OCc4ccc(C#N)cc4F)n3)cc2F)nc2ccc(C(=O)O)cc21` (single isomer, unassigned) [Example 176B], it took 0.748 nM to reach a half-maximal effect (EC50).

Turning to `Cc1cc(Cc2nc3c(F)cc(C(=O)O)cc3n2C[C@@H]2CCO2)c(Cl)cc1-c1cccc(OCc2ccc(C#N)cc2F)n1` [Example 143, (S)-2-(2-chloro-4-(6-((4-cyano-2-fluorobenzyl)oxy)pyridin-2-yl)-5-methylbenzyl)-4-fluoro-1-(oxetan-2-ylmethyl)-1H-benzo[d]imidazole-6-carboxylic Acid], a half-maximal effect (EC50) was put at 0.614 nM. The EC50 values of the last two molecules are within 1.5-fold of each other. `COCCn1c(Cc2cc(F)c(-c3ccc(F)c(OCc4ccc(C#N)cc4F)n3)cc2F)nc2ccc(C(=O)O)c(F)c21` [Example 125, 2-(4-(6-((4-cyano-2-fluorobenzyl)oxy)-5-fluoropyridin-2-yl)-2,5-difluorobenzyl)-7-fluoro-1-(2-methoxyethyl)-1H-benzo[d]imidazole-6-carboxylic Acid] yielded a concentration for a half-maximal effect (EC50) of 0.112 nM. Compared with the last molecule, the EC50 is about 5.5-fold lower. Molecule `CC1(C)COC[C@H]1n1c(Cn2cc(F)c(-c3ccc(F)c(OCc4ccc(Cl)cc4)n3)cc2=O)nc2ccc(C(=O)O)cc21` [Example 300, (S)-2-((6-((4-chlorobenzyl)oxy)-5,5′-difluoro-2′-oxo-[2,4′-bipyridin]-1′(2′H)-yl)methyl)-1-(4,4-dimethyltetrahydrofuran-3-yl)-1H-benzo[d]imidazole-6-carboxylic acid] came in with a concentration giving a half-maximal response (EC50) of 0.268 nM.

For `CC1(C)COC[C@H]1n1c(Cc2c(F)cc(-c3cccc(OCc4ccc(Cl)cc4F)n3)c(F)c2F)nc2ccc(C(=O)O)cc21` [Example 247, (S)-2-(4-(6-((4-chloro-2-fluorobenzyl)oxy)pyridin-2-yl)-2,3,6-trifluorobenzyl)-1-(4,4-dimethyltetrahydrofuran-3-yl)-1H-benzo[d]imidazole-6-carboxylic acid], the EC50 was 0.151 nM. The result for `CC1(C)COC[C@H]1n1c(Cc2ccc(-c3ccc(F)c(OCc4ccc(C#N)cc4F)n3)cc2)nc2ccc(C(=O)O)cc21` [Example 277, (S)-2-(4-(6-((4-cyano-2-fluorobenzyl)oxy)-5-fluoropyridin-2-yl)benzyl)-1-(4,4-dimethyltetrahydrofuran-3-yl)-1H-benzo[d]imidazole-6-carboxylic acid] reads 0.34 nM. The molecule `CC1(C)COC[C@H]1n1c(Cc2cc(F)c(-c3cccc(OCc4ccc(C(F)(F)F)cc4C#N)n3)cc2F)nc2ccc(C(=O)O)cc21` [Example 413, (S)-2-(4-(6-((2-cyano-4-(trifluoromethyl)benzyl)oxy)pyridin-2-yl)-2,5-difluorobenzyl)-1-(4,4-dimethyltetrahydrofuran-3-yl)-1H-benzo[d]imidazole-6-carboxylic acid] registered an EC50 of 0.281 nM.

Turning to `COCCn1c(Cc2c(F)cc(-c3cccc(OCc4cnc(-n5ccnn5)cc4Cl)n3)c(F)c2F)nc2c(F)cc(C(=O)O)cc21` [Example 226, 2-(4-(6-((4-chloro-6-(1H-1,2,3-triazol-1-yl)pyridin-3-yl)methoxy)pyridin-2-yl)-2,3,6-trifluorobenzyl)-4-fluoro-1-(2-methoxyethyl)-1H-benzo[d]imidazole-6-carboxylic acid], the EC50 worked out at 0.022 nM. In turn, `Cc1ccc(COc2cccc(-c3cc(F)c(Cc4nc5ccc(C(=O)O)cc5n4C4COCC4(C)C)cc3F)n2)c(Cl)n1` (stereo not shown) [Example 286, 2-(4-(6-((2-chloro-6-methylpyridin-3-yl)methoxy)pyridin-2-yl)-2,5-difluorobenzyl)-1-(4,4-dimethyltetrahydrofuran-3-yl)-1H-benzo[d]imidazole-6-carboxylic acid] came in with a 50% effective concentration (EC50) of 0.099 nM. The result for `CO[C@H](C)Cn1c(Cc2cc(F)c(-c3cccc(OCc4cc(F)c(Cl)cc4F)n3)cc2F)nc2c(F)cc(C(=O)O)cc21` [Example 353, (R)-2-(4-(6-((4-chloro-2,5-difluorobenzyl)oxy)pyridin-2-yl)-2,5-difluorobenzyl)-4-fluoro-1-(2-methoxypropyl)-1H-benzo[d]imidazole-6-carboxylic acid] reads 1.18 nM.
